Numbers after ± are expanded uncertainties.
Assay: xn = mol fraction of the nth substance listed
Settings: Fluid (supercritical or subcritical phases), vibrating tube

CCCCCO [pentan-1-ol] + O=C=O
Settings	mass density [kg/m3]
332.96 K, 13004 kPa, x2 = 0.0816	798.35 ± 0.44
332.96 K, 13052 kPa, x2 = 0.7274	804 ± 0.5
332.96 K, 14008 kPa, x2 = 0.7274	808.02 ± 0.46
332.96 K, 14029 kPa, x2 = 0.0816	799.18 ± 0.44
332.96 K, 14991 kPa, x2 = 0.0816	799.97 ± 0.44
332.96 K, 15033 kPa, x2 = 0.7274	812.1 ± 0.46
332.96 K, 16004 kPa, x2 = 0.0816	800.75 ± 0.44
332.96 K, 16033 kPa, x2 = 0.7274	815.82 ± 0.46
332.96 K, 17014 kPa, x2 = 0.0816	801.55 ± 0.45
332.96 K, 17034 kPa, x2 = 0.7274	819.37 ± 0.46
332.96 K, 17988 kPa, x2 = 0.7274	822.59 ± 0.46
332.96 K, 18018 kPa, x2 = 0.0816	802.33 ± 0.45
332.96 K, 19024 kPa, x2 = 0.0816	803.1 ± 0.45
332.96 K, 19059 kPa, x2 = 0.7274	826.03 ± 0.46
332.96 K, 19981 kPa, x2 = 0.0816	803.83 ± 0.45
332.96 K, 20008 kPa, x2 = 0.7274	828.96 ± 0.46
332.96 K, 20999 kPa, x2 = 0.7274	831.94 ± 0.46
332.96 K, 21024 kPa, x2 = 0.0816	804.62 ± 0.45
332.96 K, 22023 kPa, x2 = 0.7274	834.87 ± 0.46
332.96 K, 22057 kPa, x2 = 0.0816	805.42 ± 0.45
332.96 K, 23004 kPa, x2 = 0.7274	837.6 ± 0.46
332.96 K, 23012 kPa, x2 = 0.0816	806.12 ± 0.45
332.96 K, 23961 kPa, x2 = 0.7274	840.19 ± 0.46
332.96 K, 24007 kPa, x2 = 0.0816	806.87 ± 0.45
332.96 K, 25043 kPa, x2 = 0.0816	807.63 ± 0.45
333.01 K, 7029 kPa, x2 = 0.1347	794.28 ± 0.44
333.01 K, 8022 kPa, x2 = 0.1347	795.19 ± 0.44
333.01 K, 9011 kPa, x2 = 0.1347	796.07 ± 0.44
333.01 K, 10005 kPa, x2 = 0.1347	796.96 ± 0.44
333.01 K, 11019 kPa, x2 = 0.1347	797.85 ± 0.44
333.01 K, 11162 kPa, x2 = 0.6054	813.27 ± 0.45
333.01 K, 12017 kPa, x2 = 0.1347	798.71 ± 0.44
333.01 K, 12048 kPa, x2 = 0.6054	815.29 ± 0.46
333.01 K, 13025 kPa, x2 = 0.1347	799.58 ± 0.44
333.01 K, 13037 kPa, x2 = 0.6054	817.51 ± 0.45
333.01 K, 14019 kPa, x2 = 0.1347	800.43 ± 0.44
333.01 K, 14041 kPa, x2 = 0.6054	819.75 ± 0.45
333.01 K, 15000 kPa, x2 = 0.1347	801.26 ± 0.44
333.01 K, 15073 kPa, x2 = 0.6054	822.01 ± 0.45
333.01 K, 16013 kPa, x2 = 0.1347	802.1 ± 0.44
333.01 K, 16020 kPa, x2 = 0.6054	824.01 ± 0.45
333.01 K, 17014 kPa, x2 = 0.1347	802.91 ± 0.45
333.01 K, 17032 kPa, x2 = 0.6054	826.08 ± 0.45
333.01 K, 18011 kPa, x2 = 0.1347	803.75 ± 0.45
333.01 K, 18043 kPa, x2 = 0.6054	828.09 ± 0.45
333.01 K, 19014 kPa, x2 = 0.1347	804.55 ± 0.45
333.01 K, 19023 kPa, x2 = 0.6054	830 ± 0.45
333.01 K, 20028 kPa, x2 = 0.6054	831.92 ± 0.45
333.01 K, 20029 kPa, x2 = 0.1347	805.36 ± 0.45
333.01 K, 21007 kPa, x2 = 0.1347	806.13 ± 0.45
333.01 K, 21051 kPa, x2 = 0.6054	833.82 ± 0.45
333.01 K, 22021 kPa, x2 = 0.1347	806.92 ± 0.45
333.01 K, 22023 kPa, x2 = 0.6054	835.61 ± 0.45
333.01 K, 23026 kPa, x2 = 0.1347	807.74 ± 0.45
333.01 K, 23040 kPa, x2 = 0.6054	837.43 ± 0.46
333.01 K, 24005 kPa, x2 = 0.1347	808.5 ± 0.45
333.01 K, 24066 kPa, x2 = 0.6054	839.22 ± 0.46
333.01 K, 25039 kPa, x2 = 0.6054	840.93 ± 0.47
333.01 K, 25049 kPa, x2 = 0.1347	809.32 ± 0.45
342.76 K, 505 kPa, x2 = 0	776.31 ± 0.43
342.76 K, 997 kPa, x2 = 0	776.77 ± 0.43
342.76 K, 1995 kPa, x2 = 0	777.69 ± 0.43
342.76 K, 3011 kPa, x2 = 0	778.59 ± 0.43
342.76 K, 4012 kPa, x2 = 0	779.47 ± 0.43
342.76 K, 5011 kPa, x2 = 0	780.34 ± 0.44
342.76 K, 6011 kPa, x2 = 0	781.22 ± 0.44
342.76 K, 7003 kPa, x2 = 0	782.03 ± 0.44
342.76 K, 8015 kPa, x2 = 0	782.91 ± 0.44
342.76 K, 9000 kPa, x2 = 0	783.73 ± 0.44
342.76 K, 10019 kPa, x2 = 0	784.58 ± 0.44
342.76 K, 11020 kPa, x2 = 0	785.4 ± 0.44
342.76 K, 12002 kPa, x2 = 0	786.2 ± 0.44
342.76 K, 13016 kPa, x2 = 0	787.02 ± 0.44
342.76 K, 14024 kPa, x2 = 0	787.81 ± 0.44
342.76 K, 15002 kPa, x2 = 0	788.59 ± 0.44
342.76 K, 16007 kPa, x2 = 0	789.36 ± 0.44
342.76 K, 17037 kPa, x2 = 0	790.15 ± 0.44
342.76 K, 17988 kPa, x2 = 0	790.87 ± 0.45
342.76 K, 19037 kPa, x2 = 0	791.66 ± 0.45
342.76 K, 20003 kPa, x2 = 0	792.38 ± 0.45
342.76 K, 21015 kPa, x2 = 0	793.14 ± 0.45
342.76 K, 22019 kPa, x2 = 0	793.88 ± 0.45
342.76 K, 23039 kPa, x2 = 0	794.62 ± 0.45
342.76 K, 24027 kPa, x2 = 0	795.36 ± 0.45
342.76 K, 25028 kPa, x2 = 0	796.1 ± 0.45
342.84 K, 15024 kPa, x2 = 0.9757	576.16 ± 0.95
342.84 K, 16006 kPa, x2 = 0.9757	609.2 ± 0.88
342.84 K, 17033 kPa, x2 = 0.9757	637.26 ± 0.78
342.84 K, 18023 kPa, x2 = 0.9757	659.89 ± 0.73
342.84 K, 19028 kPa, x2 = 0.9757	679.62 ± 0.68
342.84 K, 20027 kPa, x2 = 0.9757	696.58 ± 0.64
342.84 K, 21039 kPa, x2 = 0.9757	711.98 ± 0.62
342.84 K, 22011 kPa, x2 = 0.9757	725.1 ± 0.6
342.84 K, 23016 kPa, x2 = 0.9757	737.54 ± 0.57
342.87 K, 8048 kPa, x2 = 0.3624	796.26 ± 0.44
342.87 K, 9023 kPa, x2 = 0.3624	797.49 ± 0.44
342.87 K, 10006 kPa, x2 = 0.4651	797.4 ± 0.44
342.87 K, 10022 kPa, x2 = 0.3624	798.77 ± 0.44
342.87 K, 11004 kPa, x2 = 0.3624	799.97 ± 0.44
342.87 K, 11022 kPa, x2 = 0.4651	799.24 ± 0.44
342.87 K, 11991 kPa, x2 = 0.4651	801.02 ± 0.44
342.87 K, 12013 kPa, x2 = 0.3624	801.19 ± 0.44
342.87 K, 13001 kPa, x2 = 0.4651	802.82 ± 0.44
342.87 K, 13035 kPa, x2 = 0.3624	802.37 ± 0.44
342.87 K, 13990 kPa, x2 = 0.3624	803.48 ± 0.44
342.87 K, 13990 kPa, x2 = 0.4651	804.53 ± 0.44
342.87 K, 14011 kPa, x2 = 0.7274	784.26 ± 0.57
342.87 K, 14992 kPa, x2 = 0.7274	789 ± 0.47
342.87 K, 15018 kPa, x2 = 0.3624	804.64 ± 0.44
342.87 K, 15036 kPa, x2 = 0.4651	806.31 ± 0.45
342.87 K, 16009 kPa, x2 = 0.3624	805.73 ± 0.44
342.87 K, 16014 kPa, x2 = 0.4651	807.95 ± 0.45
342.87 K, 16025 kPa, x2 = 0.7274	793.59 ± 0.47
342.87 K, 17000 kPa, x2 = 0.3624	806.82 ± 0.45
342.87 K, 17004 kPa, x2 = 0.4651	809.55 ± 0.45
342.87 K, 17006 kPa, x2 = 0.7274	797.68 ± 0.46
342.87 K, 18005 kPa, x2 = 0.7274	801.59 ± 0.46
342.87 K, 18017 kPa, x2 = 0.4651	811.18 ± 0.45
342.87 K, 18021 kPa, x2 = 0.3624	807.94 ± 0.45
342.87 K, 19019 kPa, x2 = 0.4651	812.75 ± 0.45
342.87 K, 19032 kPa, x2 = 0.7274	805.44 ± 0.46
342.87 K, 19036 kPa, x2 = 0.3624	809.03 ± 0.45
342.87 K, 19983 kPa, x2 = 0.7274	808.81 ± 0.46
342.87 K, 20012 kPa, x2 = 0.3624	810.06 ± 0.45

— the NIST ThermoML archive (doi:10.1016/j.jct.2007.07.005)
